Results on 16 compounds are retold here after US20220306640A1, “HYDANTOIN DERIVATIVE” (ONO PHARMACEUTICAL CO., LTD., priority 2019, published 2022).

Experiment [1] has as its target T1, DDR1 phosphorylation in T-47D (ATCC, HTB-133) cells (Homo sapiens, UniProt Q08345).
T1 construct: host or cells: T-47D
In words: Measurement of DDR1 phosphorylation suppression rate by using T-47D cells (p-DDR1 ELISA). The experiment is classed as cell-based. Conditions: collagen Type I 10 μg/ml, p-DDR1 (panTyr) ELISA. The procedure: Biological Example 2: Measurement of DDR1 Phosphorylation Suppression Rate by Using T-47D (ATCC, HTB-133) cells
T-47D cells should be in culture for at least 7 days before using in the assay.
Cell culture medium: RPMI 1640 (HyClone) containing 10% Heat-FBS (HyClone) was prepared.
Assay medium: RPMI 1640 containing 0.1% BSA (solarbio) was prepared.
Collagen Type I (rat tail) solution: Assay medium containing 200 μg/mL Collagen I, rat tail (Gibco) was prepared.
Cell lysis buffer: a solution containing IX cell lysis buffer (CST) and 1× protease and phosphatase inhibitor cocktail (Thermofisher) was prepared by using ddH2O.
• 1. Collect cells into tubes and centrifuge at 1200 rpm for 5 min, at room temperature. Re-suspend the cells in cell culture medium pre-warmed to room temperature. • 2. Count cells and suspend at a density of 2×10^5/ml of cell culture medium. Plate the cells at 100 μL per well (Corning 3599 96-well plate, 2×10^4 cells per well final), mixing the cells well between each draw of the pipettor. • 3. Put lid on cell plate and place into the incubator at 37° C., 5% CO2 • 4. Culture cell overnight
• 1. Remove the plate from the incubator • 2. Cell medium is replaced with the 90 μL Assay medium.
• 1. Compound plates are pre-titrated using DMSO (10-fold dilution for 6 points) • 2. Dilute test compound using assay medium; Transfer 1 μL compound to other 96 well plate and then add 49 μL assay medium to each well (50 fold dilution). • 3. Add 5 μL the diluted test compound solution to the appropriate wells by pipettor. Compound final concentration is start from […] and DMSO final concentration is 0.1 • 4. Tap the plates gently to mix in compound. Reseal the plate with a lid and place in the incubator again, for 24 h.
• 1. Diluted collagen Type I in assay medium to the 200 μg/ml concentration • 2. Using the pipettor adds 5 μL of 200 μg/mL collagen Type I solution to the cell plate (compound well and High control well, collagen final conc. is 10 μg/ml). Add assay medium buffer to the control wells (low control well) • 3. Reseal the plate with a lid and place in the incubator. Incubate 24 h for collagen type I
• 1. After incubation, add 100 µL per well Cell lysis buffer. • 2. Incubate 30 min on ice, then freezing to −80° C. to get the fully cell lysates. • 3. Transfer cell lysates to new plate • 4. Centrifuge for 30 min (×4000 rpm) at 4° C. Then transfer the supernatant to a new plate.
p-DDR1 (panTyr) ELISA kit (CST) was used in the study. The measurement was carried out according to the attached instruction.
(§1) The inhibition rate (%) in the test compound group was calculated based on the following mathematical formula.
% inhibition=100−100*(assay value of test compound−A)/(B−A) [Math. 2]
A: average value of low control group B: average value of high control group Values of 50% inhibition rate (IC50 values) of the test compound were calculated from the inhibition curve based on the inhibition rate of the test compounds in each concentration.

Another experiment has as its target T2, DDR1 (Homo sapiens, UniProt Q08345).
T2 construct: purchased Invitrogen
Description: Measurement of DDR1 inhibitory activity (LanthaScreen system, in vitro test). It counts as binding. Conditions: GST-DDR1, Kinase tracer 178. The protocol: Biological Experiment Example 1: Measurement of an DDR1 Inhibitory Activity (In Vitro Test)
An DDR1 enzyme inhibitory activity was measured by using LanthaScreen (registered trademark) system (Invitrogen) based on the attached instruction. The reagents used are shown below.
Assay buffer: 5× Kinase buffer A (Invitrogen) was diluted 5-fold with ddH2O.
1× Kinase Buffer A: 50 mmol/L HEPES pH 7.5, 10 mmol/L MgCl2, 1 mmol/L EGTA, 0.01% Brij-35.
2×DDR1 Solution: a solution containing […] GST-DDR1 (Invitrogen) was prepared by using Assay buffer.
2× Tracer/antibody solution: a solution containing 20 nmol/L Kinase tracer 178 (Invitorgen) and […] Eu-Anti-GST Antibody (Invitorogen) was prepared by using Assay buffer. Test compound solution: a solution containing a test compound of 2-fold concentration with respect to the final concentration was prepared by 50-fold diluting a DMSO solution of test compound of each concentration with the Assay buffer.
• 1 Add 5 μL 2×DDR1 Solution to proxiplate (PerkinElmer) • 2 Add 5 μL test compound solution to proxiplate • 3 Incubate for 15 min at RT • 4 Add 5 μL 2× Tracer/Antibody solution to all well Incubate 1 h at RT • 6 Read LANCE Eu on Envision (PerkinElmer) (Ex: 320 nm/Em 665 nm & 615 nm)
In the low control group, 5 μL Assay buffer was added instead of 5 μL 2×DDR1 Solution and the final 1% DMSO solution was added instead of test compound solution.
In the high control group, the final 1% DMSO solution was added instead of test compound solution.
as §1
% inhibition=100−100*(assay value of test compound−A)/(B−A) [Math. 1]
A: average value of low control group B: average value of high control group
Values of 50% inhibition rate (IC50 values) of the test compound were calculated from the inhibition curve based on the inhibition rate of the test compounds in each concentration.

T2 sequence (Q08345 19-913): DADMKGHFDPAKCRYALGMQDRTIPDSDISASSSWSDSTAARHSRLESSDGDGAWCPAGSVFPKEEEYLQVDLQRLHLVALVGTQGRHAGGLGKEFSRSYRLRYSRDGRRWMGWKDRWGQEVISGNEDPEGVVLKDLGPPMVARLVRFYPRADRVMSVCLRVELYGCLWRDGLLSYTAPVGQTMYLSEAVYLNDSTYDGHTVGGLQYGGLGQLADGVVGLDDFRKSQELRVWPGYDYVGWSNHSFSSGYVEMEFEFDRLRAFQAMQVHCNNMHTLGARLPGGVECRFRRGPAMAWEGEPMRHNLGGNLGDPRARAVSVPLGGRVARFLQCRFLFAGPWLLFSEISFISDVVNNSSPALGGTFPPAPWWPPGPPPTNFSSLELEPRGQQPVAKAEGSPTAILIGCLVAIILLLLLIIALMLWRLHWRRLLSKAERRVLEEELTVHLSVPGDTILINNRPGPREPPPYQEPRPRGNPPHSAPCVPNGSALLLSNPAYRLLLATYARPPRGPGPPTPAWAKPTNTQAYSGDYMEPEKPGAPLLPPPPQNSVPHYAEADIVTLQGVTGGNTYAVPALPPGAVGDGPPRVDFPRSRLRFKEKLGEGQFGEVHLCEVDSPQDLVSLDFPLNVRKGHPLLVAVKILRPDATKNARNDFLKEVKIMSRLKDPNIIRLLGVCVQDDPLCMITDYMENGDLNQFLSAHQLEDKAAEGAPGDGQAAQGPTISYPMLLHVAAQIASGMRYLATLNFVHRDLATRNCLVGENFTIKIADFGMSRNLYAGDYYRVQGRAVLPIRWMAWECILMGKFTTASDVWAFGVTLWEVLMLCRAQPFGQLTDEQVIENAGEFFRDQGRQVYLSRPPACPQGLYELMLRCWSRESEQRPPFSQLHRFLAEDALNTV
T1 sequence (Q08345 19-913): as above

As for `Cn1cc(-c2cc(O[C@H]3C[C@H](N4C(=O)CN(c5cc(CN6CCNCC6)cc(C(F)(F)F)c5)C4=O)C3)ccn2)cn1` [Example 2(126), 3-(trans-3-{[2-(1-methyl-1H-pyrazol-4-yl)-4-pyridinyl]oxy}cyclobutyl)-1-[3-(1-piperazinylmethyl)-5-(trifluoromethyl)phenyl]-2,4-imidazolidinedione], the IC50 in experiment [1] was 6 nM; on DDR1 it was 10 nM.
For `O=C1CN(c2cncc(C(F)(F)F)c2)C(=O)N1[C@H]1CC[C@H](Oc2ncnc3[nH]ccc23)CC1` (stereo in doubt) [Example 3(17), 3-[trans-4-(7H-pyrrolo[2,3-d]pyrimidin-4-yloxy)cyclohexyl]-1-[5-(trifluoromethyl)-3-pyridinyl]-2,4-imidazolidinedione], in that order: 9 nM and 5 nM.
Turning to `CC(C)c1cc(N2C(=O)CN(c3cncc(C(F)(F)F)c3)C2=O)ccc1Oc1ccnc2[nH]c(=O)[nH]c12` [Example 2(149), 3-{3-isopropyl-4-[(2-oxo-2,3-dihydro-1H-imidazo[4,5-b]pyridin-7-yl)oxy]phenyl}-1-[5-(trifluoromethyl)-3-pyridinyl]-2,4-imidazolidinedione], the IC50 (in experiment [1]; at DDR1) was 3 nM each time.
Regarding `COc1cc2nccc(Oc3ccc(N4C(=O)CN(c5cncc(C(F)(F)F)c5)C4=O)cc3C3CN(C(=O)OC(C)(C)C)C3)c2cc1OC` [Example 2(2), 2-methyl-2-propanyl 3-(2-[(6,7-dimethoxy-4-quinolinyl)oxy]-5-{2,5-dioxo-3-[5-(trifluoromethyl)-3-pyridinyl]-1-imidazolidinyl}phenyl)-1-azetidinecarboxylate], the figures for the IC50 (in experiment [1]; against DDR1) were 50 nM and 200 nM, respectively.
The corresponding values for `Cc1cc(N2C(=O)CN(c3cncc(C(F)(F)F)c3)C2=O)ccc1Oc1ccnc2ccnn12` [Example 3(47), 3-[3-methyl-4-(pyrazolo[1,5-a]pyrimidin-7-yloxy)phenyl]-1-[5-(trifluoromethyl)-3-pyridinyl]-2,4-imidazolidinedione] are 1 nM and 1 nM.
The corresponding values for `O=C1CN(c2cncc(C3(C(F)(F)F)CCO3)c2)C(=O)N1c1ccc(Oc2cnc3[nH]ncc3c2)cc1` (centres unmarked) [Example 13, 3-[4-(1H-pyrazolo[3,4-b]pyridin-5-yloxy)phenyl]-1-{5-[2-(trifluoromethyl)-2-oxetanyl]-3-pyridinyl}-2,4-imidazolidinedione] are 3 nM and 3 nM.
The corresponding values for `O=C1CN(c2cncc(C(F)(F)F)c2)C(=O)N1C1CC2CC1CC2Oc1ncnc2[nH]ccc12` (centres unmarked) [Example 3(63), 3-[5-(7H-pyrrolo[2,3-d]pyrimidin-4-yloxy)bicyclo[2.2.1]hept-2-yl]-1-[5-(trifluoromethyl)-3-pyridinyl]-2,4-imidazolidinedione] are 1 nM and 7 nM.
For `CCc1cc(N2C(=O)CN(c3cncc(C(F)(F)F)c3)C2=O)ccc1Oc1ccnc2[nH]ccc12` [Example 3(176), 3-[3-ethyl-4-(1H-pyrrolo[2,3-b]pyridin-4-yloxy)phenyl]-1-[5-(trifluoromethyl)-3-pyridinyl]-2,4-imidazolidinedione], the IC50 in experiment [1] was determined as 0.1 nM; at DDR1, 2 nM.
The corresponding values for `COc1cc2nccc(N3CCc4cc(N5C(=O)CN(c6cncc(C(F)(F)F)c6)C5=O)ccc43)c2cc1OC` [Example 9(1), 3-[1-(6,7-dimethoxy-4-quinolinyl)-2,3-dihydro-1H-indol-5-yl]-1-[5-(trifluoromethyl)-3-pyridinyl]-2,4-imidazolidinedione] are 20 nM and 10 nM.
The corresponding values for `CS(=O)(=O)c1cc(N2CC(=O)N(c3ccc(Oc4cnc5[nH]ncc5c4)cc3)C2=O)cc(C(F)(F)F)c1` [Example 1(28), 1-[3-(methylsulfonyl)-5-(trifluoromethyl)phenyl]-3-[4-(1H-pyrazolo[3,4-b]pyridin-5-yloxy)phenyl]-2,4-imidazolidinedione] are 2 nM and 2 nM.
For `COc1cc2nccc(Cc3ccc(N4C(=O)CN(c5cccc(C(F)(F)F)c5)C4=O)cc3)c2cc1OC` [Example 6(1), 3-{4-[(6,7-dimethoxy-4-quinolinyl)methyl]phenyl}-1-[3-(trifluoromethyl)phenyl]-2,4-imidazolidinedione], in that order: 2 nM and 5 nM.
Regarding `CC(C)c1cc(N2C(=O)CN(c3cc(C(F)(F)F)cn(C)c3=O)C2=O)ccc1Oc1ccnc2cc(OCCCS(C)(=O)=O)ccc12` [Example 2(6), 3-[3-isopropyl-4-({7-[3-(methylsulfonyl)propoxy]-4-quinolinyl}oxy)phenyl]-1-[1-methyl-2-oxo-5-(trifluoromethyl)-1,2-dihydro-3-pyridinyl]-2,4-imidazolidinedione], the concentration for half-maximal inhibition (IC50) came out at 6 nM in experiment [1] and 10 nM against DDR1.
The corresponding values for `Nc1nccc(Oc2ccc(N3C(=O)CN(c4cncc(C(F)(F)F)c4)C3=O)c(-c3ccccc3)c2)n1` [Example 3(122), 3-{5-[(2-amino-4-pyrimidinyl)oxy]-2-biphenylyl}-1-[5-(trifluoromethyl)-3-pyridinyl]-2,4-imidazolidinedione] are 7 nM and 5 nM.
As to `CC#Cc1cc(Oc2ccnc(N)n2)ccc1N1C(=O)CN(c2cncc(C(F)(F)F)c2)C1=O` [Example 3(120), 3-{4-[(2-amino-4-pyrimidinyl)oxy]-2-(1-propyn-1-yl)phenyl}-1-[5-(trifluoromethyl)-3-pyridinyl]-2,4-imidazolidinedione], the IC50 in experiment [1] was determined as 5 nM; against DDR1 it was 7 nM.
The corresponding values for `Nc1ncc(Oc2ccc(N3C(=O)CN(c4cncc(C(F)(F)F)c4)C3=O)cc2)cn1` [Example 1, 3-{4-[(2-amino-5-primidinyl)oxy]phenyl}-1-[5-(trifluoromethyl)-3-pyridinyl]-2,4-imidazolidinedione] are 2 nM and 3 nM.
For `O=C1CN(c2cncc(C(F)(F)F)c2)C(=O)N1C1CC2(CC(Oc3ncnc4[nH]ccc34)C2)C1` (centres unmarked) [Example 3(66), 3-[6-(7H-pyrrolo[2,3-d]pyrimidin-4-yloxy)spiro[3.3]hept-2-yl]-1-[5-(trifluoromethyl)-3-pyridinyl]-2,4-imidazolidinedione], in that order: 1 nM and 1 nM.
